# Calls of active or inactive are those of the source. The calls are words filed in the database; no cut-off is given here.
# Legend:
# Type in all cases: functional, organism-based
# Rattus norvegicus [1] = test: Antiosteoporotic effect in OVX-induced Wistar rat osteoporosis model assessed as increase in bone calcium content at 1 mg/kg/day, ig administered for 2 weeks by flame atomic absorption spectroscopy relative to control
# Rattus norvegicus [2] = test: Antiosteoporotic effect in OVX-induced Wistar rat osteoporosis model assessed as increase in serum estradiol level at 1 mg/kg/day, ig administered for 2 weeks by RIA relative to control
# Rattus norvegicus [3] = test: Antiosteoporotic effect in OVX-induced Wistar rat osteoporosis model assessed as decrease in urinary DPD/Cr level at 1 mg/kg/day, ig administered for 2 weeks by ELISA relative to control; conditions: Urine
# Rattus norvegicus [4] = test: Antiosteoporotic effect in OVX-induced Wistar rat osteoporosis model assessed as increase in trabecular thickness in left femur at 1 mg/kg/day, ig administered for 2 weeks by histomorhological analysis relative to control
# Rattus norvegicus [5] = test: Antiosteoporotic effect in OVX-induced Wistar rat osteoporosis model assessed as increase in femur wet weight at 1 mg/kg/day, ig administered for 2 weeks relative to control
# Rattus norvegicus [6] = test: Antiosteoporotic effect in OVX-induced Wistar rat osteoporosis model assessed as increase in ultimate load of left femur at 1 mg/kg/day, ig administered for 2 weeks by […] relative to control
# Rattus norvegicus [7] = test: Antiosteoporotic effect in OVX-induced Wistar rat osteoporosis model assessed as increase in femur ash weight at 1 mg/kg/day, ig administered for 2 weeks relative to control
# Rattus norvegicus [8] = test: Antiosteoporotic effect in OVX-induced Wistar rat osteoporosis model assessed as increase in bone mineral content of left femur at 1 mg/kg/day, ig administered for 2 weeks by dual-energy X-ray absorptiometry relative to control
# Rattus norvegicus [9] = test: Antiosteoporotic effect in OVX-induced Wistar rat osteoporosis model assessed as decrease in serum CTX level at 1 mg/kg/day, ig administered for 2 weeks by ELISA relative to control
# Rattus norvegicus [10] = test: Antiosteoporotic effect in OVX-induced Wistar rat osteoporosis model assessed as increase in serum calcitonin level at 1 mg/kg/day, ig administered for 2 weeks by RIA relative to control
# Rattus norvegicus [11] = test: Antiosteoporotic effect in OVX-induced Wistar rat osteoporosis model assessed as decrease in serum ALP level at 1 mg/kg/day, ig administered for 2 weeks by colorimetric method relative to control
# Rattus norvegicus [12] = test: Antiosteoporotic effect in OVX-induced Wistar rat osteoporosis model assessed as decrease in trabecular separation in left femur at 1 mg/kg/day, ig administered for 2 weeks by histomorhological analysis relative to control
# Rattus norvegicus [13] = test: Antiosteoporotic effect in OVX-induced Wistar rat osteoporosis model assessed as increase in bone mineral density of third lumbar vertebra at 1 mg/kg/day, ig administered for 2 weeks by dual-energy X-ray absorptiometry relative to control
# Rattus norvegicus [14] = test: Antiosteoporotic effect in OVX-induced Wistar rat osteoporosis model assessed as increase in femur dry weight at 1 mg/kg/day, ig administered for 2 weeks relative to control
# Rattus norvegicus [15] = test: Antiosteoporotic effect in OVX-induced Wistar rat osteoporosis model assessed as increase in bone mineral content of third lumbar vertebra at 1 mg/kg/day, ig administered for 2 weeks by dual-energy X-ray absorptiometry relative to control
# Rattus norvegicus [16] = test: Antiosteoporotic effect in OVX-induced Wistar rat osteoporosis model assessed as increase in serum calcium level at 1 mg/kg/day, ig administered for 2 weeks by colorimetric method relative to control
# Rattus norvegicus [17] = test: Antiosteoporotic effect in OVX-induced Wistar rat osteoporosis model assessed as decrease in serum TRAP level at 1 mg/kg/day, ig administered for 2 weeks by colorimetric method relative to control
# Rattus norvegicus [18] = test: Antiosteoporotic effect in OVX-induced Wistar rat osteoporosis model assessed as increase in ultimate load of third lumbar vertebra at 1 mg/kg/day, ig administered for 2 weeks by […] relative to control
# Rattus norvegicus [19] = test: Antiosteoporotic effect in OVX-induced Wistar rat osteoporosis model assessed as increase in trabecular number in left femur at 1 mg/kg/day, ig administered for 2 weeks by histomorhological analysis relative to control
# Rattus norvegicus [20] = test: Antiosteoporotic effect in OVX-induced Wistar rat osteoporosis model assessed as increase in bone mineral density of left femur at 1 mg/kg/day, ig administered for 2 weeks by dual-energy X-ray absorptiometry relative to control
# Rattus norvegicus [21] = test: Antiosteoporotic effect in OVX-induced Wistar rat osteoporosis model assessed as increase in trabecular thickness in third lumbar vertebra at 20 to 40 mg/kg/day, ig administered for 2 weeks by histomorhological analysis relative to control
# Rattus norvegicus [22] = test: Antiosteoporotic effect in OVX-induced Wistar rat osteoporosis model assessed as increase in ultimate load of third lumbar vertebra at 20 to 40 mg/kg/day, ig administered for 2 weeks by […] relative to control
# Rattus norvegicus [23] = test: Antiosteoporotic effect in OVX-induced Wistar rat osteoporosis model assessed as increase in femur dry weight at 40 mg/kg/day, ig administered for 2 weeks relative to control
# Rattus norvegicus [24] = test: Antiosteoporotic effect in OVX-induced Wistar rat osteoporosis model assessed as increase in bone calcium content at 40 mg/kg/day, ig administered for 2 weeks by flame atomic absorption spectroscopy relative to control
# Rattus norvegicus [25] = test: Antiosteoporotic effect in OVX-induced Wistar rat osteoporosis model assessed as increase in femur wet weight at 40 mg/kg/day, ig administered for 2 weeks relative to control
# Rattus norvegicus [26] = test: Antiosteoporotic effect in OVX-induced Wistar rat osteoporosis model assessed as decrease in trabecular separation in left femur at 20 to 40 mg/kg/day, ig administered for 2 weeks by histomorhological analysis relative to control
# Rattus norvegicus [27] = test: Antiosteoporotic effect in OVX-induced Wistar rat osteoporosis model assessed as decrease in serum TRAP level at 20 to 40 mg/kg/day, ig administered for 2 weeks by colorimetric method relative to control
# Rattus norvegicus [28] = test: Antiosteoporotic effect in OVX-induced Wistar rat osteoporosis model assessed as increase in ultimate load of left femur at 20 to 40 mg/kg/day, ig administered for 2 weeks by […] relative to control
# Rattus norvegicus [29] = test: Antiosteoporotic effect in OVX-induced Wistar rat osteoporosis model assessed as increase in bone mineral content of third lumbar vertebra at 20 to 40 mg/kg/day, ig administered for 2 weeks by dual-energy X-ray absorptiometry relative to control
# Rattus norvegicus [30] = test: Antiosteoporotic effect in OVX-induced Wistar rat osteoporosis model assessed as increase in trabecular number in third lumbar vertebra at 20 to 40 mg/kg/day, ig administered for 2 weeks by histomorhological analysis relative to control
# Rattus norvegicus [31] = test: Antiosteoporotic effect in OVX-induced Wistar rat osteoporosis model assessed as increase in serum estradiol level at 40 mg/kg/day, ig administered for 2 weeks by RIA relative to control
# Rattus norvegicus [32] = test: Antiosteoporotic effect in OVX-induced Wistar rat osteoporosis model assessed as decrease in serum CTX level at 20 to 40 mg/kg/day, ig administered for 2 weeks by ELISA relative to control
# Rattus norvegicus [33] = test: Antiosteoporotic effect in OVX-induced Wistar rat osteoporosis model assessed as decrease in trabecular separation in third lumbar vertebra at 20 to 40 mg/kg/day, ig administered for 2 weeks by histomorhological analysis relative to control
# Rattus norvegicus [34] = test: Antiosteoporotic effect in OVX-induced Wistar rat osteoporosis model assessed as increase in trabecular thickness in left femur at 20 to 40 mg/kg/day, ig administered for 2 weeks by histomorhological analysis relative to control
# Rattus norvegicus [35] = test: Antiosteoporotic effect in OVX-induced Wistar rat osteoporosis model assessed as increase in serum calcitonin level at 40 mg/kg/day, ig administered for 2 weeks by RIA relative to control
# Rattus norvegicus [36] = test: Antiosteoporotic effect in OVX-induced Wistar rat osteoporosis model assessed as increase in serum phosphorus level at 20 to 40 mg/kg/day, ig administered for 2 weeks by colorimetric method relative to control
# Rattus norvegicus [37] = test: Antiosteoporotic effect in OVX-induced Wistar rat osteoporosis model assessed as decrease in urinary DPD/Cr level at 20 to 40 mg/kg/day, ig administered for 2 weeks by ELISA relative to control; conditions: Urine
# Rattus norvegicus [38] = test: Antiosteoporotic effect in OVX-induced Wistar rat osteoporosis model assessed as decrease in serum ALP level at 20 to 40 mg/kg/day, ig administered for 2 weeks by colorimetric method relative to control
# Rattus norvegicus [39] = test: Antiosteoporotic effect in OVX-induced Wistar rat osteoporosis model assessed as increase in femur ash weight at 40 mg/kg/day, ig administered for 2 weeks relative to control
# Rattus norvegicus [40] = test: Antiosteoporotic effect in OVX-induced Wistar rat osteoporosis model assessed as increase in bone mineral density of third lumbar vertebra at 20 to 40 mg/kg/day, ig administered for 2 weeks by dual-energy X-ray absorptiometry relative to control
# Rattus norvegicus [41] = test: Antiosteoporotic effect in OVX-induced Wistar rat osteoporosis model assessed as increase in bone mineral density of left femur at 20 to 40 mg/kg/day, ig administered for 2 weeks by dual-energy X-ray absorptiometry relative to control
# Rattus norvegicus [42] = test: Antiosteoporotic effect in OVX-induced Wistar rat osteoporosis model assessed as increase in trabecular number in left femur at 20 to 40 mg/kg/day, ig administered for 2 weeks by histomorhological analysis relative to control
# Rattus norvegicus [43] = test: Antiosteoporotic effect in OVX-induced Wistar rat osteoporosis model assessed as increase in serum calcium level at 20 to 40 mg/kg/day, ig administered for 2 weeks by colorimetric method relative to control
# Rattus norvegicus [44] = test: Antiosteoporotic effect in OVX-induced Wistar rat osteoporosis model assessed as increase in bone mineral content of left femur at 20 to 40 mg/kg/day, ig administered for 2 weeks by dual-energy X-ray absorptiometry relative to control
structure (smiles),measurement,setting,value
C#C[C@@]1(O)[C@H](O)C[C@H]2[C@@H]3CCc4cc(OC5CCCC5)ccc4[C@H]3CC[C@@]21C,Activity,Rattus norvegicus [1],Active
same,Activity,Rattus norvegicus [2],Active
same,Activity,Rattus norvegicus [3],Active
same,Activity,Rattus norvegicus [4],Active
same,Activity,Rattus norvegicus [5],Active
same,Activity,Rattus norvegicus [6],Active
same,Activity,Rattus norvegicus [7],Active
same,Activity,Rattus norvegicus [8],Active
same,Activity,Rattus norvegicus [9],Active
same,Activity,Rattus norvegicus [10],Active
same,Activity,Rattus norvegicus [11],Active
same,Activity,Rattus norvegicus [12],Active
same,Activity,Rattus norvegicus [13],Active
same,Activity,Rattus norvegicus [14],Active
same,Activity,Rattus norvegicus [15],Active
same,Activity,Rattus norvegicus [16],Active
same,Activity,Rattus norvegicus [17],Active
same,Activity,Rattus norvegicus [18],Active
same,Activity,Rattus norvegicus [19],Active
same,Activity,Rattus norvegicus [20],Active
O=C1O[C@H]2[C@@H]3OC(=O)c4cc(O)c(O)c(O)c4-c4c(cc(O)c(O)c4O)C(=O)OC[C@H]2O[C@@H](OC(=O)c2cc(O)c(O)c(O)c2)[C@@H]3OC(=O)c2cc(O)c(O)c3c2[C@@H]2C1=CC(=O)[C@](O)(O3)C2(O)O,Activity,Rattus norvegicus [21],Active
same,Activity,Rattus norvegicus [22],Active
same,Activity,Rattus norvegicus [23],Active
same,Activity,Rattus norvegicus [24],Active
same,Activity,Rattus norvegicus [25],Active
same,Activity,Rattus norvegicus [26],Active
same,Activity,Rattus norvegicus [27],Active
same,Activity,Rattus norvegicus [28],Active
same,Activity,Rattus norvegicus [29],Active
same,Activity,Rattus norvegicus [30],Active
same,Activity,Rattus norvegicus [31],Active
same,Activity,Rattus norvegicus [32],Active
same,Activity,Rattus norvegicus [33],inactive
same,Activity,Rattus norvegicus [34],Active
same,Activity,Rattus norvegicus [35],Active
same,Activity,Rattus norvegicus [36],inactive
same,Activity,Rattus norvegicus [37],Active
same,Activity,Rattus norvegicus [38],Active
same,Activity,Rattus norvegicus [39],Active
same,Activity,Rattus norvegicus [40],Active
same,Activity,Rattus norvegicus [41],Active
same,Activity,Rattus norvegicus [42],Active
same,Activity,Rattus norvegicus [43],Active
same,Activity,Rattus norvegicus [44],Active

# From ChEMBL document CHEMBL3393012, “Osteoprotective effect of geraniin against ovariectomy-induced bone loss in rats” (Bioorg Med Chem Lett, 2015)
